Source: PubChem BioAssay (NCI)
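Values below derive from 48-hour exposures of cells grown in 96-well plates, with endpoints linearly interpolated between the two concentrations bracketing the appropriate inhibition level. GI50 is the concentration that inhibits growth by half. TGI is the concentration that stops growth completely.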

Tests used:
Experiment in all cases: growth of human tumour cells (NCI), 48 h
CAKI-1 renal = test system: CAKI-1 renal
HOP-62 NSCLC = test system: HOP-62 NSCLC
SK-OV-3 ovarian = test system: SK-OV-3 ovarian
IGROV1 ovarian = test system: IGROV1 ovarian
PC-3 prostate = test system: PC-3 prostate
UACC-62 melanoma = test system: UACC-62 melanoma
HCC-2998 colon = test system: HCC-2998 colon
SK-MEL-28 melanoma = test system: SK-MEL-28 melanoma
SF-295 CNS = test system: SF-295 CNS
ACHN renal = test system: ACHN renal
NCI-H226 lung = test system: NCI-H226 lung
SF-539 CNS = test system: SF-539 CNS

Row | SMILES | TGI (CAKI-1 renal) [µM] | TGI (HOP-62 NSCLC) [µM] | TGI (SK-OV-3 ovarian) [µM] | TGI (IGROV1 ovarian) [µM] | TGI (PC-3 prostate) [µM] | TGI (UACC-62 melanoma) [µM] | TGI (HCC-2998 colon) [µM] | TGI (SK-MEL-28 melanoma) [µM] | TGI (SF-295 CNS) [µM] | TGI (ACHN renal) [µM] | TGI (NCI-H226 lung) [µM] | TGI (SF-539 CNS) [µM] | GI50 (HCC-2998 colon) [µM]
1 | Cc1cc(-c2[nH]c(C(=O)O)cc2I)on1 | > 100 | > 100 | > 100 | > 100 | > 100 | > 100 | > 100 | > 100 | > 100 | > 100 | – | – | –
2 | O=c1/c(=C\c2ccccc2)sc2n1C(c1ccccc1)C1(O)CCCCC1N=2 (stereo not drawn) | > 100 | > 100 | – | > 100 | > 100 | > 100 | > 100 | > 100 | – | > 100 | > 100 | – | –
3 | Cc1c2c(cc3c1[nH]c1ccccc13)C=NCC2 | 31.6 | 56.4 | 97.2 | 49.5 | – | 21.5 | 46.8 | 16.8 | 27.1 | – | 50.2 | 11.9 | –
4 | CCOC(=O)Nc1c(C#N)[n+]([O-])c2cc(Cl)c(Cl)cc2[n+]1[O-] | 40.4 | > 100 | 66 | 28.6 | 31.8 | 31.1 | – | 30.7 | 34 | – | 42.9 | 30.9 | –
5 | NCCCn1c2ccccc2c2c3c(c4c(c21)CCC(O)CC4)C(=O)NC3=O (stereo not drawn) | 16.6 | 15.9 | – | 21.5 | 16.2 | 17.3 | 4.24 | 13.1 | 15.6 | 12.1 | 13.6 | 21.6 | –
6 | COc1cc2c(c(OC)c1OC)-c1ccc(SC)c(=O)cc1[C@@H](OC(C)=O)CC2 | > 100 | > 100 | – | – | > 100 | > 100 | – | > 100 | – | > 100 | – | – | –
7 | CCC1C(c2cccc(OC)c2O)c2cc3c(cc2OC1N1CCCC1)OCO3 (stereo not drawn) | – | 46.3 | – | 45.3 | 89.2 | 65.9 | 21.9 | 43.4 | 50.8 | 84.3 | – | 27 | –
8 | CN(C(=O)Cc1ccc(Cl)c(Cl)c1)[C@H]1CCCC[C@@H]1[N+]1(C)CCCC1 | > 100 | > 100 | > 100 | > 100 | > 100 | > 100 | – | > 100 | > 100 | > 100 | > 100 | > 100 | –
9 | CC(C)C(C/C=C1\CC(CO)(COC(=O)c2ccccc2)OC1=O)C(C)C (stereo not drawn) | 33.8 | 28.7 | 87.9 | 37.2 | 32.5 | > 100 | 44.8 | 30.2 | 28.7 | 32 | 39.8 | – | –
10 | CCCCCC(=O)c1ccc2[nH]c3c(C)cc([N+](=O)[O-])c(C)c3c2c1 | > 100 | > 100 | – | – | – | – | > 100 | > 100 | > 100 | > 100 | > 100 | > 100 | –
11 | CCOC(=O)Oc1cc2c(c(OC)c1OC)-c1ccc(SC)c(=O)cc1C(NC(=O)C(F)(F)F)CC2 (stereo not drawn) | 0.0928 | > 100 | – | 0.149 | > 100 | > 100 | – | > 100 | > 100 | 52.8 | 0.00301 | – | 0.0146
12 | Clc1ccc(Cc2nc3ccc(CCN4CCN(c5ccccc5)CC4)cc3[nH]2)cc1 | 38.6 | 30.5 | 38.4 | 90.6 | > 100 | 33.6 | – | 54.3 | 26.5 | > 100 | 51.3 | 33.5 | –
13 | COc1ccc2[nH]c(Cl)c(/C=C3/C(=O)Nc4cc(C)c(OC)cc43)c2c1 | 21.7 | 18.5 | 9.4 | 17.1 | 16.1 | 15.2 | 17.2 | 22.1 | 6 | 21.4 | – | 4.8 | –
14 | Cc1c(C(=O)N2CCN(c3ccc([N+](=O)[O-])cc3)CC2)[n+](=O)c2cc(Cl)c(Cl)cc2n1[O-] | 64.3 | 38.2 | 29.5 | 42.7 | 45 | 34 | 33.2 | 73.4 | 34.2 | 26.3 | – | 32.6 | –
15 | C=C1C[C@@H](O)C[C@@]2(C)C[C@@H]3OC(=O)C(=C)[C@@H]3C[C@H]12 | 14.1 | 53.4 | > 81.9 | 28.8 | – | 21 | 14.2 | 14 | 54.6 | – | 37.7 | 23.1 | –
16 | COC(=O)c1cc(NC(=O)c2cc(NC(=O)c3cc([N+](=O)[O-])cn3C)cn2C)cn1C | > 100 | > 100 | > 100 | – | > 100 | > 100 | – | > 100 | > 100 | > 100 | > 100 | > 100 | –
17 | COc1ccccc1-c1cc(=O)c2ccccc2[nH]1 | – | > 100 | > 100 | > 100 | – | > 100 | > 100 | > 100 | > 100 | > 100 | > 100 | > 100 | –
18 | Cn1c(C(C#N)c2nc(Cl)ncc2Br)nc2ccccc21 (stereo not drawn) | > 100 | > 100 | > 100 | > 100 | – | – | – | > 100 | > 100 | > 100 | > 100 | > 100 | –
19 | ClC(Cl)(Cl)C1=N[C@H]2[C@H](Br)[C@@H]3O[C@@H](c4ccccc4)[C@H](c4ccccc4)O[C@@H]3[C@H]2O1 | 32.6 | 41.3 | 40.5 | 30.9 | 30.4 | 31.5 | 28.5 | 37.1 | 34.3 | 31.3 | 35.5 | – | –
20 | CCOc1ccc(/C=C(\Cl)c2ccc(OC)c(OC)c2)cc1 | – | > 100 | > 100 | > 100 | – | > 100 | > 100 | > 100 | > 100 | > 100 | 74.8 | > 100 | –

Row | SMILES | TGI (CAKI-1 renal) [µM] | TGI (HOP-62 NSCLC) [µM] | TGI (SK-OV-3 ovarian) [µM] | TGI (IGROV1 ovarian) [µM] | TGI (PC-3 prostate) [µM] | TGI (UACC-62 melanoma) [µM] | TGI (HCC-2998 colon) [µM] | TGI (SK-MEL-28 melanoma) [µM] | TGI (SF-295 CNS) [µM] | TGI (ACHN renal) [µM] | TGI (NCI-H226 lung) [µM] | TGI (SF-539 CNS) [µM] | GI50 (HCC-2998 colon) [µM]
21 | CC(C)CCC[C@@H](C)[C@H]1CCC2C3CC=C4C[C@@H](Oc5c6ccccc6nc6ccccc56)CCC4C3CCC21 (stereo partly drawn) | > 50 | > 50 | > 50 | > 50 | > 50 | > 50 | – | > 50 | > 50 | > 50 | > 50 | > 50 | –
22 | Cc1ccc(S(=O)(=O)/N=C(\NN)Nc2ccc(Cl)cc2)cc1 | > 100 | > 100 | > 100 | > 100 | > 100 | > 100 | – | > 100 | > 100 | > 100 | > 100 | > 100 | –
23 | COc1cccc(-c2ccc3c4c2O[C@H]2c5[nH]c6ccccc6c5C[C@@]5(O)[C@@H](C3)N(CC3CC3)CC[C@]425)c1 | 4.9 | 3.12 | – | 3.04 | 2.48 | 3.05 | 2.87 | > 23.1 | 3.08 | 2.98 | 30.2 | 3.51 | –
24 | CCCCCCCCCCCCCCCCCCNc1ccn(C2OC(COP(=O)(O)OCC3CCC(n4cnc5c(=O)[nH]cnc54)O3)C(O)C2O)c(=O)n1 (stereo not drawn) | > 100 | > 100 | > 100 | > 100 | 47.6 | > 100 | – | > 100 | > 100 | > 100 | > 100 | > 100 | –
25 | CCCCCC(=O)N[C@@H](c1ccccc1)C(O)C(=O)OC1C[C@@]2(O)C(OC(=O)c3ccccc3)C3[C@](C)(C(=O)[C@H](O)C(=C1C)C2(C)C)C(OC1OCC(O)C(O)C1O)C[C@H]1OC[C@@]31OC(C)=O (stereo partly drawn) | – | > 75.8 | 57.2 | > 100 | > 86.4 | > 100 | 10.5 | > 100 | > 93.7 | > 100 | > 100 | 5.68 | –
26 | O=C1O/C(=C(\Br)c2cccc3ccccc23)c2ccccc21 | – | > 100 | > 55.8 | > 57.9 | – | > 55.6 | > 100 | > 50.2 | > 53.6 | > 55.1 | > 55.7 | > 100 | –
27 | CN1C(=S)C(c2ccccc2)Sc2ccccc21 (stereo not drawn) | > 100 | > 100 | > 100 | > 100 | > 100 | > 100 | – | > 100 | 89.4 | > 100 | > 100 | – | –
28 | CCOC(=O)c1cc(C(=O)c2ccccc2)n2nc(-c3ccc(Cl)cc3)ccc12 | 81.3 | 34.8 | 34.5 | 38.8 | 30.4 | 39.3 | 51 | 68.3 | 54.2 | 28.2 | 55.8 | – | –
29 | CCN(CC)CCCOC(=O)/C=C/c1c(C)[nH]c(=O)[nH]c1=O | > 625 | > 625 | > 625 | > 625 | – | > 625 | > 625 | > 625 | > 625 | – | > 625 | > 625 | –
30 | CC(C)SC(C)(NC(=O)C1C(C)(C)CCC1(C)C)C(=O)O (stereo not drawn) | – | > 100 | > 100 | – | > 100 | – | > 100 | > 100 | – | > 100 | > 100 | > 100 | –
31 | O=C(NCCC(F)(F)C(F)(F)C(F)(F)C(F)(F)F)NC1OC(CO)C(O)C(O)C1O (stereo not drawn) | > 100 | > 100 | > 100 | > 100 | > 100 | > 100 | > 100 | > 100 | > 100 | > 100 | – | > 100 | –
32 | C=C1C(=O)OC2(C)C3CCC(C3)C12 (stereo not drawn) | 99.4 | > 100 | > 100 | > 100 | – | > 100 | > 100 | > 100 | > 100 | > 100 | > 100 | > 100 | –
33 | COC(=O)/C=C(\C)C(=O)N(C)c1ccccc1I | > 100 | > 100 | > 100 | – | > 100 | > 100 | > 100 | > 100 | > 100 | > 100 | > 100 | – | –
34 | CC(C(=O)ON1C(=O)CCC1=O)c1ccc(C(=O)c2ccccc2)s1 (stereo not drawn) | > 100 | > 100 | > 100 | > 100 | > 100 | > 100 | > 100 | > 100 | > 100 | > 100 | > 100 | – | –
35 | Cc1cc(O)c2c(c1O)C(=O)C13C(=C2O)C(=O)C2C(O)C1C1C(O)C3C(=O)C3=C(O)c4c(O)cc(C)c(O)c4C(=O)C321 (stereo not drawn) | 0.696 | 0.526 | 0.319 | 2.06 | – | – | 0.329 | 0.59 | 0.311 | – | 0.879 | 0.278 | –
36 | O=c1c(SSc2coc3cc(F)ccc3c2=O)coc2cc(F)ccc12 | 43.3 | > 100 | – | 20.2 | 21.5 | 36.1 | 35.6 | 30.4 | > 100 | 26.1 | > 100 | > 100 | –
37 | Cn1c(=O)c2c(nc3n(Cc4ccccc4)c(=O)c(NCCBr)cn23)n(C)c1=O | 37.6 | 43.2 | 51.9 | > 100 | > 100 | > 100 | 52 | > 100 | 43.1 | 32.3 | 63.1 | – | –
38 | Cc1sc2nc(-c3cc([N+](=O)[O-])c(Cl)cc3Cl)c(/C=N/N=C(N)N)n2c1C | 33.9 | > 100 | – | 9.12 | 36.2 | 39.5 | 5.39 | 6.58 | 36.4 | 39.2 | 75.2 | 88 | –
39 | O=C(O)CCCCCOc1cccnc1/C=N/NC1=NCCN1 | > 100 | > 100 | > 100 | > 100 | – | > 100 | > 100 | > 100 | > 100 | > 100 | > 100 | > 100 | –
